Measurements reported in ChEMBL document CHEMBL1800000, “Identification of non-amidine inhibitors of acid-sensing ion channel-3 (ASIC3)” (Bioorg Med Chem Lett, 2011).
The source made the active and inactive calls. The rule behind the calls is not given here.

Key:
[1] = target: T1, Acid-sensing ion channel 3 (Homo sapiens, UniProt Q9UHC3); assay: Inhibition of ASIC3 assessed as inhibition of peak current by electrophysiology method
T1 sequence (Q9UHC3 whole entry): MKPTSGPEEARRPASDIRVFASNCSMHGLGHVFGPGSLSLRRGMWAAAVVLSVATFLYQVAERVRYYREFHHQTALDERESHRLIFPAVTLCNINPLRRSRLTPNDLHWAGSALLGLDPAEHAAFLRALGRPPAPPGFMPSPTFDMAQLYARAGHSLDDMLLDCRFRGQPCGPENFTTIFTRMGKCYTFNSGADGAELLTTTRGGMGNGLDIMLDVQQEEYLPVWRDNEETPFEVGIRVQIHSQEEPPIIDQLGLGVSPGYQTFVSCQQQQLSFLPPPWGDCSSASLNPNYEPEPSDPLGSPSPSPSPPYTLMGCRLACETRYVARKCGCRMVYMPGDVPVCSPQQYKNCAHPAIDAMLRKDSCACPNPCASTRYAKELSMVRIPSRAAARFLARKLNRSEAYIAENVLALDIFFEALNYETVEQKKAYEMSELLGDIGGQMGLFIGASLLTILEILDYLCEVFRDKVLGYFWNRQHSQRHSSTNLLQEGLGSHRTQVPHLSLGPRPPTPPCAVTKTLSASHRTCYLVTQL

[2] = Plasma concentration in Sprague-Dawley rat at 100 mg/kg, po after 30 mins; assay type: ADME, organism-based; parameters: dose 100 mg/kg, route oral
Rattus norvegicus [3] = assay: Antihyperalgesic effect in complete Freund's adjuvant-induced Sprague-Dawley rat inflammatory pain model assessed as reversal of mechanical hypersensitivity at 100 mg/kg, po after 30 mins; assay type: functional, organism-based; parameters: dose 100 mg/kg
[4] = target: T2, Acid-sensing ion channel 1 (Homo sapiens, UniProt P78348); assay: Inhibition of ASIC1a
T2 sequence (P78348 whole entry): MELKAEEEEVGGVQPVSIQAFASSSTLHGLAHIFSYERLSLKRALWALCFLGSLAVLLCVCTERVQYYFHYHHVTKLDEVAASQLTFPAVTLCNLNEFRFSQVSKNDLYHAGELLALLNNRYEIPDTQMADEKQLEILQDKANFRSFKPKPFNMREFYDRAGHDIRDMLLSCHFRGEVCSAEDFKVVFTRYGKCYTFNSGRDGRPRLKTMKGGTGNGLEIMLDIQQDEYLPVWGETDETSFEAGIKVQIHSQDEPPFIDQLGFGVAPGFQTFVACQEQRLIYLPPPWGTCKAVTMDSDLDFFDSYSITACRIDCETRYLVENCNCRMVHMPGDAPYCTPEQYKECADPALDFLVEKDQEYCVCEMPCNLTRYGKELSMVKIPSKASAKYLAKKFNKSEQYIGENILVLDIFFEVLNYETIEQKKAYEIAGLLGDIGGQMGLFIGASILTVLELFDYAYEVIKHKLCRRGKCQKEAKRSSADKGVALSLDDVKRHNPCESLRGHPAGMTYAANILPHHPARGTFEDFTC

[5] = Ratio of drug level in brain to plasma in […]; assay type: ADME; details: rat, read-out: BPR
Rattus norvegicus [6] = assay: Toxicity in Sprague-Dawley rat brain assessed as lethargy at 100 mg/kg, po; assay type: organism-based; parameters: dose 100 mg/kg, route oral; details: in vivo
[7] = Ratio of drug level in brain to plasma in Sprague-Dawley rat at 100 mg/kg, po; assay type: ADME, organism-based; parameters: dose 100 mg/kg, route oral; details: read-out: BPR
Brain = assay: Drug uptake in Sprague-Dawley rat brain at 100 mg/kg, po; assay type: ADME, organism-based; parameters: dose 100 mg/kg, route oral; details: in vivo, read-out: Drug uptake
Rattus norvegicus [8] = assay: Induction of sedative activity in Sprague-Dawley rat at 100 mg/kg, po; assay type: organism-based; parameters: dose 100 mg/kg, route oral; details: in vivo
[9] = Inhibition of serotonin receptor
[10] = Inhibition of adrenergic receptor
[11] = Inhibition of dopamine receptor
[12] = Inhibition of muscarinic receptor

Row | SMILES | IC50 [1] [µM] | further results
1 | NCc1sc2cc(C#Cc3cccc4c3CCCC4N3CCCC3)ccc2c1Cl (stereo unspecified) | 2.5 | 
2 | NCc1sc2cc(C#Cc3ccc4c(c3)CN(CC(F)F)CC4)ccc2c1Cl | 10.2 | 
3 | NCc1sc2cc(C#Cc3ccc4c(c3)CN(Cc3ccccc3)CC4)ccc2c1Cl | 17.1 | 
4 | CC(c1cccc(C#Cc2ccc3c(Cl)c(CN)sc3c2)c1)N(C)C (stereo unspecified) | 4.3 | 
5 | NCc1sc2cc(C#Cc3ccc4c(c3)CN(CC(F)(F)F)CC4)ccc2c1Cl | > 50 | 
6 | CC(C)(C)OC(=O)N1CCc2ccc(C#Cc3ccc4c(Cl)c(CN)sc4c3)cc2C1 | > 50 | 
7 | CCN1CCc2ccc(C#Cc3ccc4c(Cl)c(CN)sc4c3)cc2C1 | 0.23 | 
8 | CN(C)C1CCc2c(C#Cc3ccc4c(Cl)c(CN)sc4c3)cccc21 (stereo unspecified) | 0.19 | 
9 | CC1c2cc(C#Cc3ccc4c(Cl)c(CN)sc4c3)ccc2CCN1C (stereo unspecified) | 0.27 | 

Further lines, with some results ahead:

Row | IC50 [1] [µM] | SMILES | further results
10 | 0.23 | CN(C)C1CCCc2c(C#Cc3ccc4c(Cl)c(CN)sc4c3)cccc21 (stereo unspecified) | 
11 | 0.22 | NCc1sc2cc(C#Cc3ccc4c(c3)CNCC4)ccc2c1Cl | concentration at 0.5 h [2]: 3.6 µM; Activity (Rattus norvegicus [3]): Active; IC50 [4]: 0.224 µM; Kp [5]: 15.4; Activity (Rattus norvegicus [6]): Toxic; Kp [7]: 6; concentration (Brain): 14 µM; Activity (Rattus norvegicus [8]): Toxic
12 | 2.8 | NCc1sc2cc(C#Cc3ccccc3)ccc2c1Cl | 
13 | 0.46 | CC(C)C1c2cc(C#Cc3ccc4cc(C(=N)N)ccc4c3)ccc2CCN1C (stereo unspecified) | IC50 [9]: < 10 µM; IC50 [10]: < 10 µM; Kp [5]: 2.6; IC50 [11]: < 10 µM; IC50 [12]: < 10 µM
14 | 0.31 | CC(C)N1CCc2ccc(C#Cc3ccc4c(Cl)c(CN)sc4c3)cc2C1 | 
15 | 6.3 | N=C(N)c1ccc2cc(C#Cc3ccccc3)ccc2c1 | 
16 | 4.8 | NCc1ccc2cc(C#Cc3ccccc3)ccc2c1 | 
17 | 0.68 | CN1CCc2ccc(C#Cc3ccc4c(Cl)c(CN)sc4c3)cc2C1 | 
18 | 3.4 | N=C(N)c1sc2cc(C#Cc3ccccc3)ccc2c1Cl | 
